# Measurements reported in patent publication US6410600B1, “Azine used as fungicides” (Bayer Aktiengesellschaft, priority 1998, dated 2002).
# Experiments:
# [1] = logP determination by HPLC (EEC direction 79/831 Annex V. A8); assay type: physicochemical; conditions: eluent not stated
# [2] = system: Venturia inaequalis; assay: Venturia Test (apple)/Protective; assay type: in vivo; conditions: protective, application rate 10 g/ha, evaluation 12 days after inoculation
# Description: Venturia Test (apple)/Protective
# (§1) To produce a suitable preparation of active compound, 1 part by weight of active compound is mixed with the stated amounts of solvent and emulsifier, and the concentrate is diluted with water to the desired concentration.
# To test for protective activity, young plants are sprayed with the preparation of active compound at the stated application rate. After the spray coating has dried on, the plants are inoculated with an aqueous conidia suspension of the causative organism of apple scab Venturia inaequalis and then remain in an incubation cabin at approximately 20° C. and 100% relative atmospheric humidity for 1 day.
# The plants are then placed in a greenhouse at approximately 21° C. and a relative atmospheric humidity of approximately 90%.
# Evaluation is carried out 12 days after the inoculation. 0% means an efficacy which corresponds to that of the control, whereas an efficacy of 100% means that no infection is observed.
# [3] = system: Sphaerotheca fuliginea; assay: Sphaerotheca Test (cucumber)/Protective; assay type: in vivo; conditions: protective, application rate 100 g/ha, evaluation 10 days after inoculation
# Description: Sphaerotheca Test (cucumber)/Protective
# as §1
# To test for protective activity, young plants are sprayed with the preparation of active compound at the stated application rate. After the spray coating has dried on, the plants are inoculated with an aqueous spore suspension of Sphaerotheca fuliginea. The plants are then placed in a greenhouse at approximately 23° C. and a relative atmospheric humidity of approximately 70%.
# Evaluation is carried out 10 days after the inoculation. 0% means an efficacy which corresponds to that of the control, whereas an efficacy of 100% means that no infection is observed.
# [4] = system: Plasmopara viticola; assay: Plasmopara Test (grapevine)/Protective; assay type: in vivo; conditions: protective, application rate 100 g/ha, evaluation 6 days after inoculation
# Description: Plasmopara Test (grapevine)/Protective
# as §1
# To test for protective activity, young plants are sprayed with the preparation of active compound at the stated application rate. After the spray coating has dried on, the plants are inoculated with an aqueous spore suspension of Plasmopara viticola and then remain in an incubation cabin at approximately 20° C. and 100% relative atmospheric humidity for 1 day. The plants are then placed in a greenhouse at approximately 21° C. and approximately 90% relative atmospheric humidity. The plants are then moistened and placed in an incubation cabin for 1 day.
# Evaluation is carried out 6 days after the inoculation. 0% means an efficacy which corresponds to that of the control, whereas an efficacy of 100% means that no infection is observed.
SMILES,chromatographic logP [1],efficacy [2],efficacy [3],efficacy [4]
CO/N=C(\C)C(C)=NN [3-hydrazono-butan-2-one O-methyl oxime],0.97,–,–,–
"COC(=O)/C=C(/OC)c1ccccc1C=NN=C(C)c1cccc(C(F)(F)F)c1 [Example 1, methyl 3-methoxy-3-(2-{[1-(3-trifluoromethylphenyl)-ethylidene]-hydrazonomethyl}-phenyl)-acrylate]",4.4,more than 90%,more than 80%,more than 80%
